In brackets after ≈: the same amount, converted by molar mass.
Assays:
physchem [1] = conditions: octanol/water
Description: GSK_TB: GSK in-house hydrophobicity assay (logP)

physchem [2] = conditions: buffer, pH 7.4
Description: GSK_TB: GSK in-house hydrophobicity assay at pH7.4 (logD)

physchem [3] = conditions: phosphate buffered saline, pH 7.4
[4] = test system: Mycobacterium tuberculosis H37Rv; test: microbe, parasite or virus in culture
Description: GSK_TB: Intracellular minimum inhibitory concentration (MIC) H37Rv assay

| Compound | logP (physchem [1]) | logD (physchem [2]) | solubility kinetic (physchem [3]) | MIC90 [4] |
| --- | --- | --- | --- | --- |
| Cl.O=C(c1ccco1)N(CCCn1ccnc1)c1nc2c(Cl)cccc2s1 | 5.63 | 5.25 | 21 µM | 8.41 µM |
| Clc1ccc(CCNc2cc(-c3ccccc3)nc3ncnn23)cc1 | 5.73 | 5.53 | 1 µM (≈ 0.35 µg/mL) | 1.5 µM (≈ 0.525 µg/mL) |
| Cc1n[nH]c(C)c1S(=O)(=O)NCc1nc(NCCCc2ccccc2)c2ccccc2n1 | 4.52 | 4.32 | 240 µM (≈ 108 µg/mL) | 1.8 µM (≈ 0.811 µg/mL) |
| O=C(c1cc2c(s1)CCC2)N1CCN(Cc2ccc3c(c2)OCO3)CC1 | 6.34 | 6.09 | 117 µM (≈ 43.3 µg/mL) | 5.3 µM (≈ 1.96 µg/mL) |
| CNc1nc(SCC(=O)N(C)Cc2ccc(Cl)s2)nc2ccccc12 | 5.23 | 5.07 | 56 µM (≈ 22 µg/mL) | 5.62 µM (≈ 2.21 µg/mL) |
| O=C(NCc1ccc(Oc2ccccc2)cc1)c1c(C(F)(F)F)nc2ccccn12 | 6.58 | 6.28 | 1 µM (≈ 0.411 µg/mL) | 0.2 µM (≈ 0.0823 µg/mL) |
| Cc1nc2ccccn2c1C(=O)NCc1ccc(Cl)cc1 | 4.12 | 4.04 | 405 µM (≈ 121 µg/mL) | 0.4 µM (≈ 0.12 µg/mL) |
| O=C(C1CCN(c2nnc(-n3cccc3)s2)CC1)N1CCC(Cc2ccccc2)CC1 | 6.78 | 6.37 | 1 µM (≈ 0.436 µg/mL) | 4.2 µM (≈ 1.83 µg/mL) |
| Cc1nc2ccccn2c1C(=O)Nc1ccc(C(C)(C)C)cc1 | 6.03 | 5.81 | 85 µM (≈ 26.1 µg/mL) | 6.2 µM (≈ 1.91 µg/mL) |
| O=C(C=Cc1cccs1)N1CCN(Cc2ccc(Br)s2)CC1 | 6.74 | 6.47 | 152 µM (≈ 60.4 µg/mL) | 1.9 µM (≈ 0.755 µg/mL) |
| CN1CCN(c2ccc(C(F)(F)F)cc2NC(=O)c2ccccn2)CC1 | 6.84 | 6.19 | 182 µM (≈ 66.3 µg/mL) | 1.91 µM (≈ 0.694 µg/mL) |
| Cc1ccc2nc(C(F)(F)F)c(C(=O)NCc3cccc(OC(C)C)c3)n2c1 | 6.43 | 6.19 | 1 µM (≈ 0.391 µg/mL) | 2.1 µM (≈ 0.822 µg/mL) |
| N#Cc1ccc2c(c1)CCN(CCCSc1ccnc3cc(C(F)(F)F)ccc13)CC2 | 8.64 | 7.96 | 1 µM (≈ 0.442 µg/mL) | 2.4 µM (≈ 1.06 µg/mL) |
| O=C(NCc1ccccc1F)N1CCN(Cc2ccc(Br)s2)CC1 | 5.93 | 5.72 | 60 µM (≈ 24.7 µg/mL) | 6.6 µM (≈ 2.72 µg/mL) |
| O=C(N[C@@H](Cc1ccccc1)C(=O)Nc1ccccc1N1CCOCC1)c1cccs1 | 5.78 | 5.53 | 52 µM (≈ 22.6 µg/mL) | 6.6 µM (≈ 2.87 µg/mL) |
| CSc1ccc(-c2nnc(NC(=O)c3ccc(Cl)s3)o2)cc1 | 6.07 | 3.76 | 67 µM (≈ 23.6 µg/mL) | 6.61 µM (≈ 2.32 µg/mL) |
| OC1(c2ccccc2)Oc2ccccc2N=C1c1ccccc1 (configuration not stated) | 6.19 | 6.09 | 263 µM (≈ 79.3 µg/mL) | 6.68 µM (≈ 2.01 µg/mL) |
| COc1ccc(CC(=O)Nc2c(-c3cccs3)nc3cc(C)ccn23)cc1 | 4.02 | 3.95 | 87 µM (≈ 32.8 µg/mL) | 6.8 µM (≈ 2.57 µg/mL) |
| Cc1ccc2nc(C(F)(F)F)c(C(=O)NCc3cc(Cl)cc(Cl)c3)n2c1 | 7.04 | 6.65 | 1 µM (≈ 0.402 µg/mL) | 0.9 µM (≈ 0.362 µg/mL) |
| Cc1ccc2nc(C(F)(F)F)c(C(=O)NCc3cccs3)n2c1 | 4.98 | 4.79 | 17 µM (≈ 5.77 µg/mL) | 0.9 µM (≈ 0.305 µg/mL) |
| CCOc1ccc(-c2nc(CNCCc3ccc(F)cc3)cs2)cc1.O=C(O)C(=O)O | 7.45 | 6.09 | 159 µM | 1.07 µM |
| Cc1ccc2nc(C(F)(F)F)c(C(=O)NCc3ccc4c(c3)OCO4)n2c1 | 4.98 | 4.79 | 22 µM (≈ 8.3 µg/mL) | 1.1 µM (≈ 0.415 µg/mL) |

| Compound | logP (physchem [1]) | logD (physchem [2]) | solubility kinetic (physchem [3]) | MIC90 [4] |
| --- | --- | --- | --- | --- |
| CCc1c(C)nc(-n2nc(C)cc2NC(=O)c2ccccc2SC)[nH]c1=O | 6.48 | 5.63 | 1 µM (≈ 0.383 µg/mL) | 1.15 µM (≈ 0.44 µg/mL) |
| Cc1ccc2nc(C)c(C(=O)NCc3ccco3)n2c1 | 3.02 | 3.02 | 277 µM (≈ 74.6 µg/mL) | 1.3 µM (≈ 0.35 µg/mL) |
| CCN(Cc1ccc2c(c1)OCO2)C(=O)CSc1nc(NC)c2ccccc2n1 | 4.83 | 4.69 | 74 µM (≈ 30.4 µg/mL) | 2.8 µM (≈ 1.15 µg/mL) |
| CCc1ccc(Nc2nnc(SCc3cc(C)on3)s2)cc1 | 5.98 | 5.72 | 1 µM (≈ 0.332 µg/mL) | 2.8 µM (≈ 0.931 µg/mL) |
| COc1ccc(-c2ccc(Nc3cccc(S(=O)(=O)CCNCCc4cccs4)c3)nc2)cn1 | 5.83 | 5.63 | 1 µM (≈ 0.495 µg/mL) | 7.59 µM (≈ 3.75 µg/mL) |
| Cc1ccc2nc(C)c(C(=O)NCC(C)C)n2c1 | 3.41 | 3.39 | 287 µM (≈ 70.4 µg/mL) | 7.67 µM (≈ 1.88 µg/mL) |
| Cc1ccc(SCCNC(=O)c2c(-c3ccccc3)noc2C)cc1 | 6.68 | 6.37 | 50 µM (≈ 17.6 µg/mL) | 7.76 µM (≈ 2.74 µg/mL) |
| O=C(Nc1nc(-c2ccccn2)cs1)c1cncn1-c1ccccc1 | 3.38 | 3.39 | 118 µM (≈ 41 µg/mL) | 7.94 µM (≈ 2.76 µg/mL) |
| COc1ccc(-c2cc(NC(=O)c3ccc(F)cc3Cl)ccc2OC)cc1 | 6.48 | 6.28 | 1 µM (≈ 0.386 µg/mL) | 8.13 µM (≈ 3.14 µg/mL) |
| O=C(NCc1cc(Cl)cc(Cl)c1)c1c(C(F)(F)F)nc2ccccn12 | 6.48 | 6.09 | 1 µM (≈ 0.388 µg/mL) | 3.1 µM (≈ 1.2 µg/mL) |
| O=C(NCc1ccc2c(c1)OCO2)c1c(C(F)(F)F)nc2ccccn12 | 4.38 | 4.23 | 115 µM (≈ 41.8 µg/mL) | 3.3 µM (≈ 1.2 µg/mL) |
| Cn1ccnc1CNCCS(=O)(=O)c1cccc(Nc2ccc(-c3cccc(F)c3)cn2)c1 | 4.62 | 4.41 | 64 µM (≈ 29.8 µg/mL) | 4.68 µM (≈ 2.18 µg/mL) |
| Cc1ccc2nc(C(F)(F)F)c(C(=O)NCc3ccc(C)o3)n2c1 | 5.18 | 4.97 | 259 µM (≈ 87.4 µg/mL) | 3.43 µM (≈ 1.16 µg/mL) |
| CC(C)n1ncc2c(C(=O)NCC(c3cccs3)N3CCOCC3)cc(-c3ccccc3)nc21 (configuration not stated) | 7.54 | 7.21 | 1 µM (≈ 0.476 µg/mL) | 4.8 µM (≈ 2.28 µg/mL) |
| CC(C)c1ccc(-c2cncc(N3CCN(c4ccncc4)CC3)n2)cc1 | 6.74 | 4.79 | 89 µM (≈ 32 µg/mL) | 8.32 µM (≈ 2.99 µg/mL) |
| O=C(CCCSc1ccccc1)NNC(=O)c1cccs1 | 3.77 | 3.67 | 559 µM (≈ 179 µg/mL) | 8.32 µM (≈ 2.67 µg/mL) |
| COc1ccc(-c2nc(-c3cccc(NC(=O)Cc4ccc(F)cc4)c3)no2)cc1OC | 6.68 | 6.37 | 102 µM (≈ 44.2 µg/mL) | 3.7 µM (≈ 1.6 µg/mL) |
| Cc1ccc2nc(C(F)(F)F)c(C(=O)NCc3ccco3)n2c1 | 4.48 | 4.32 | 159 µM (≈ 51.4 µg/mL) | 3.89 µM (≈ 1.26 µg/mL) |
| N#Cc1nc(-c2ccccc2)oc1S(=O)(=O)c1ccc(Cl)cc1 | 7.48 | 7.12 | 1 µM (≈ 0.345 µg/mL) | 8.9 µM (≈ 3.07 µg/mL) |
| Cc1occc1C(=O)Nc1nc(-c2ccccn2)nc2ccsc12 | 4.93 | 4.79 | 105 µM (≈ 35.3 µg/mL) | 4 µM (≈ 1.35 µg/mL) |
| Cc1ccc2[nH]c(C3CCCNC3)c(-c3ccncc3)c2c1 (configuration not stated) | 3.72 | 2.18 | 267 µM (≈ 77.8 µg/mL) | 7.67 µM (≈ 2.24 µg/mL) |
